Data published in patent US9334231B2, “Photoreactive synthetic regulator of protein function and methods of use thereof” (The Regents of the University of California, priority 2008, dated 2016).
Counter-ions that a name gives are not always drawn.

Columns and labels:
[1] = target: T1, Shaker IR channels (Sh-IR) (Drosophila melanogaster, UniProt P08510, DEL6-46); test: Whole-cell patch clamp of HEK293 cells expressing Shaker IR after AAQ/EtAcAQ/AcAQ treatment; assay type: cell-based; conditions: 500-nm and 380-nm light; for block of steady-state current: after blocker pre-treatment (400 uM in FIG. 2)
T1 construct: expressed in transfected cells; host or cells: HEK293 / HEK293T cells, calcium phosphate transfection

[2] = Isomerization wavelengths of red-shifted regulator; assay type: physicochemical
Kν channels = test: Stated characteristics of exemplary synthetic regulators (channel block)
[3] = illumination at 420 nm
[4] = target: T2, Sh-IR internal TEA binding site (Drosophila melanogaster, UniProt P08510, DEL6-46); test: Inside-out patches from HEK293 cells expressing Sh-IR, dose-response under 380 and 500 nm light; assay type: cell-based; conditions: inside-out patch
T2 construct: expressed in transfected cells; host or cells: HEK293 / HEK293T cells, calcium phosphate transfection

[5] = tested on: endogenous K+ channels in dissociated hippocampal neurons; conditions: preincubation at 300 nM; cited from earlier work
Sh-IR = target: T3, Sh-IR (Drosophila melanogaster, UniProt P08510, DEL6-46); test: AzoQA structure-activity screen: HEK293T cells expressing Sh-IR, applied in dark, washout, whole-cell voltage clamp; assay type: cell-based; conditions: for isomer preference of block: cis (380 nm) versus trans (500 nm)
T3 construct: expressed in transfected cells; host or cells: HEK293 / HEK293T cells, calcium phosphate transfection
From the text: Solutions were adjusted to 300-310 mOsm.
These AzoQA's were applied in dark, which favors the trans configuration, at various concentrations to HEK293T cells expressing Sh-IR, followed by washout and whole-cell voltage clamp recording.

[6] = tested on: endogenous K+ channels in dissociated hippocampal neurons
[7] = tested on: L type and N type Ca channels (L-type Caν, Caν2.2); test: QAQ photoswitching of Ca channels; assay type: cell-based
Experimental: (§1) Experiments were conducted to test the effect of QAQ on various channels.
(§2) Purple light was used in all cases to relieve the block. FIG. 6 depicts a bar graph showing the quantification of photoswitching on individual channels when having 100 μM QAQ in the pipette.

[8] = tested on: Shaker K channel, Kν2.1, Kν3.1, Kν4.2, hippocampal Kν; test: QAQ photoswitching of voltage gated K channels (QAQ in the pipette); assay type: cell-based
Experimental: as §1, §2

[9] = tested on: capsaicin-evoked nocifensive behaviors; test: Capsaicin-evoked nocifensive behaviors after hindpaw injection; assay type: in vivo, mouse; conditions: co-injection with capsaicin into hindpaw, 10 min, versus capsaicin alone
Experimental: It was shown (Example 3) that QAQ blocks capsaicin-evoked sensory neuron activation in vitro, in a light-dependent manner. It was then tested whether QAQ can block nocifensive responses in vivo, and whether this action can be regulated by light. This experiment consisted of 2 parts: (1) it was tested whether QAQ acts as an analgesic, in the absence of light. […] Injection of capsaicin into the mouse hindpaw elicits a 5-10 min bout of licking and flinching; such responses are blocked by co-application of lidocaine, morphine, and other analgesics (Binshtock et al., 2007 Nature 449:607-10). Because analgesics are molecules that alleviate pain, evaluating the analgesic properties of a new molecule requires induction of discomfort in animals. The ability of QAQ to inhibit capsaicin-evoked nocifensive behaviors was tested. Fourteen mice were used for this experiment: to one set of 7 mice, capsaicin alone was applied by injection; to a second set of 7 mice, capsaicin and QAQ were co-injected. The mice were then placed in a transparent Plexiglas chamber and behavior was video recorded for 10 min. After 10 min, mice were euthanized.

P2X7R [10] = target: T4, P2X7R (Homo sapiens, UniProt Q99572); test: Loading of QAQ into hippocampal neurons transfected with P2X7R; assay type: cell-based
T4 construct: expressed in transfected cells; host or cells: HEK cells, co-expressed with Shaker channel
T4 sequence (Q99572 1-595): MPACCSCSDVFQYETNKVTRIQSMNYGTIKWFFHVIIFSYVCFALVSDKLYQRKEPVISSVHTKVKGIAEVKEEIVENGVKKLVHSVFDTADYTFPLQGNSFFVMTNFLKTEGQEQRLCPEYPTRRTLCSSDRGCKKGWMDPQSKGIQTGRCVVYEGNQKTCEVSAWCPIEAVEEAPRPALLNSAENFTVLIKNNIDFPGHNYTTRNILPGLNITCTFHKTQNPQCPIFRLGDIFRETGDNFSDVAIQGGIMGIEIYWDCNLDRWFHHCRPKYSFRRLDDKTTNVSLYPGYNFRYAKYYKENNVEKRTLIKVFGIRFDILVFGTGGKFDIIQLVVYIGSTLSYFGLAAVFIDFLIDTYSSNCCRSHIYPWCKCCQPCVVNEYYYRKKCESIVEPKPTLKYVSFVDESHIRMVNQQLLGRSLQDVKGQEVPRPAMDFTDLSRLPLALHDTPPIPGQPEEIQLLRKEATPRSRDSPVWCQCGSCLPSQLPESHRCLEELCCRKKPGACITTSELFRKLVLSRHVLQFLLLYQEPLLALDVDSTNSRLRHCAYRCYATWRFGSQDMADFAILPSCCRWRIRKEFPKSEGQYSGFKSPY
From the text: (§3) Hippocampal neurons were transfected with P2X7R. […] In 1 of 13 cells tested, QAQ entered a cell which was not heterologously expressing P2X7R, possibly because this cell was expressing endogenous P2X7 receptors. It was then asked whether QAQ could enter cells naturally expressing either of these channels and looked at sensory neurons. Sensory neurons are activated by sensory input and project towards the central nervous system. Sensory neurons of the trigeminal ganglia naturally express TRPV1 channels. QAQ was applied together with capsaicin on these sensory neurons in in vitro culture.

P2X7R [11] = target: T4, P2X7R; test: Loading of QAQ through P2X7R in HEK cells co-expressing Shaker channel; assay type: cell-based
From the text: (§4) Advantage was taken of the biophysical properties of certain ion channels. TRPV1 channel and the ATP gated P2X7 receptor can open a wide pore upon prolonged agonist exposure. This pore becomes then permeable to large organic cations like the local anesthetic QX314. It was investigated whether QAQ could be loaded into cells expressing either one of these two channels (P2X7R or TRPV1). If so, specific cells could be targeted with QAQ, and then excitability could be controlled with light. This concept is depicted schematically in FIG. 8.
(§5) It was first determined whether P2X7R expressed in HEK cells could be an entry route for QAQ. P2X7R was co-expressed together with Shaker channel.

[12] = tested on: native Na channels expressed in NG108-15 cells (Naν); test: QAQ photoswitching of native Na channels in NG108-15 cells; assay type: cell-based
Experimental: as §1, §2

neurons = test: Neuron firing under current clamp with QAQ; assay type: cell-based; conditions: progressively greater current injected
From the text: The effect of QAQ on neurons was investigated. Neuron firing was examined under current clamp, by injecting progressively greater current into the cell, under 2 different wavelengths of light. […] This is because block of Na channels dominates: when Na channels are blocked, the initial phase of the AP is blocked and neurons are silent. Again, QAQ acts like lidocaine in neurons, silencing cells under green light or in the dark.

TRPV1 = target: T5, TRPV1 (Homo sapiens, UniProt Q8NER1); test: Loading of QAQ through TRPV1 in cells co-expressing Shaker channel; assay type: cell-based
T5 construct: expressed in transfected cells; the context is HEK cells
From the text: as §4, §5

[13] = tested on: native K channels of sensory neurons naturally expressing TRPV1; test: QAQ with capsaicin on sensory neurons of the trigeminal ganglia in culture; assay type: cell-based; conditions: QAQ applied together with capsaicin
From the text: as §3

Shaker channel = target: T6, Shaker channel (Drosophila melanogaster, UniProt P08510); test: QAQ membrane permeance: patch pipette versus external application, HEK cells expressing Shaker channel; assay type: cell-based
T6 construct: expressed in transfected cells; host or cells: HEK cells
From the text: The K current was observed upon a depolarization to +40 mV under purple 380 nm light.

[14] = 100 μM QAQ in the pipette, purple light relieves block

T3 sequence (P08510 other isoform, or with tags, fused parts or gaps DEL6-46): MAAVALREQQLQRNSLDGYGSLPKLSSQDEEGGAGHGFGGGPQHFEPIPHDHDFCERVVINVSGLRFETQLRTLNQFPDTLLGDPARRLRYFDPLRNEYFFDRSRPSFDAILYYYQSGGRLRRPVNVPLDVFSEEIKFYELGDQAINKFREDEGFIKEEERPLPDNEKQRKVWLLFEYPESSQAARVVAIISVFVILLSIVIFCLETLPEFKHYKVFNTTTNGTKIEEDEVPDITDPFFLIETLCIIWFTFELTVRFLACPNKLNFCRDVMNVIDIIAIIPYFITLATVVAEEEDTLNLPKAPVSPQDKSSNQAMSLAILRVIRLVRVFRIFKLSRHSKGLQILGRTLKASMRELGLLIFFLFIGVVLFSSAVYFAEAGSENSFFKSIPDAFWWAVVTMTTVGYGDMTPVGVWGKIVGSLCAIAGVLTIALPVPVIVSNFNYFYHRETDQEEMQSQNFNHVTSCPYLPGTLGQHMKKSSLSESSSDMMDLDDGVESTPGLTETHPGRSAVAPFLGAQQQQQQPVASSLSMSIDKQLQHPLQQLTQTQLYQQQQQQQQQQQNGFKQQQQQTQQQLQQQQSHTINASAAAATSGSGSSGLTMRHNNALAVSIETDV
T1 sequence (P08510 other isoform, or with tags, fused parts or gaps DEL6-46): as above
T6 sequence (P08510 whole entry): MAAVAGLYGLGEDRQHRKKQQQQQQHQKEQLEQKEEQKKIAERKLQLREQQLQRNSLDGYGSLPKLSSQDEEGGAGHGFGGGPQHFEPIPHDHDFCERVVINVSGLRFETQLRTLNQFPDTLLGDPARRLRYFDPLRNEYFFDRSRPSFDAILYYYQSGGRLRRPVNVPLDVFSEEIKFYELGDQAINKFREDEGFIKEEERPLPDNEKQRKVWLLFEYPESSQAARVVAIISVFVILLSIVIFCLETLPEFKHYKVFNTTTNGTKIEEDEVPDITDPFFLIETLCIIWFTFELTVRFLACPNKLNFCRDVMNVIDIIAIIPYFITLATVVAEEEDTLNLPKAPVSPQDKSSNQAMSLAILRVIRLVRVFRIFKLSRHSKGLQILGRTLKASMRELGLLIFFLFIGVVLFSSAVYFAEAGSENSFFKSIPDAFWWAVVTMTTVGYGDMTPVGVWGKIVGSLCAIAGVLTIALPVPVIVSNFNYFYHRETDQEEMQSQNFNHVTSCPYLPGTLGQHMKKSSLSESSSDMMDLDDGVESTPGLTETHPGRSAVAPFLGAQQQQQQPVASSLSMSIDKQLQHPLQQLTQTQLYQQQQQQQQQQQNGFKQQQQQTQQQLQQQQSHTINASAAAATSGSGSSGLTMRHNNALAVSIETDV
T2 sequence (P08510 with tags, fused parts or gaps DEL6-46): as the sequence (P08510 other isoform, or with tags, fused parts or gaps DEL6-46) above
T5 sequence (Q8NER1 whole entry, species assumed): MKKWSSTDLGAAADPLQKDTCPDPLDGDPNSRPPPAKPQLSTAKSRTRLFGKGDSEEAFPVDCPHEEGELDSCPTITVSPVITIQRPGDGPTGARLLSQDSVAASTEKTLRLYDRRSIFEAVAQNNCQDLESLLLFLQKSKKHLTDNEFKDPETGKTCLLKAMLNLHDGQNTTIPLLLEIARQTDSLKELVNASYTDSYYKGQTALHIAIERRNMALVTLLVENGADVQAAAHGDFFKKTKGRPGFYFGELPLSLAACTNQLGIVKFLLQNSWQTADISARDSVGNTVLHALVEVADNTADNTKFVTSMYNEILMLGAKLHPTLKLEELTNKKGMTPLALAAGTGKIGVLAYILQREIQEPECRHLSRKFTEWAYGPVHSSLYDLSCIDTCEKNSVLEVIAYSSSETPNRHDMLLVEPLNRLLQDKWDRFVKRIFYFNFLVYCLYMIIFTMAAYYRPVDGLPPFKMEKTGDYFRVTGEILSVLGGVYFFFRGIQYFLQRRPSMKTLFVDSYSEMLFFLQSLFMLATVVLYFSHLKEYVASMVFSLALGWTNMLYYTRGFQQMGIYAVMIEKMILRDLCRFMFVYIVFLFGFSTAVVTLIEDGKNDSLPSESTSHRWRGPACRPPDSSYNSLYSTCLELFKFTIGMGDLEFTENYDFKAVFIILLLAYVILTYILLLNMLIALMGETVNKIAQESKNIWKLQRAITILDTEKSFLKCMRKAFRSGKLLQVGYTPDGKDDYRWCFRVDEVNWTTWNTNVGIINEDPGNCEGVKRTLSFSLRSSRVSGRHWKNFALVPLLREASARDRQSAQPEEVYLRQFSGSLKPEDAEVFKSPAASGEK

## CC[N+](CC)(CC)CC(=O)Nc1ccc(N=Nc2ccc(NC(C)=O)cc2)cc1.O=C[O-] [AcAQ, 4-acetamido-4′-(2)-triethylammoniumacetamidoazobenzene formate]
[1]
  block of steady-state current: persistently blocked the steady-state current in a light-dependent fashion
[1]; extracellular pre-treatment
  photoswitching after pre-treatment: considerable sustained photoswitching

## CCN(CC)c1ccc(/N=N/c2ccc(NC(=O)C[N+](CC)(CC)CC)cc2)cc1 [DAAQ]
[2]
  wavelength of first isomeric form: 472 nm
  wavelength of second isomeric form: 550 nm
Kν channels
  channels blocked / selectivity: able to block Kν channels
  external or internal blocker: external blocker
  isomeric form that blocks: trans-blocker

## C=CC(=O)Nc1ccc(/N=N/c2ccc(NC(=O)C[N+](CC)(CC)CC)cc2)cc1 [AAQ, Acrylamide Azobenzene Quaternary ammonium]
[3]
  cis isomer content: 50%
[4]
  current block after washout with control solution: relieved within several seconds of washout
[4]; 380 nm light, n=3-5, read-out: IC50 (cis isomer)
  IC50: 64 µM
[5]
  photosensitization of endogenous K+ channels: strongly photosensitize endogenous K^+

## CCCc1ccc(N=Nc2ccc(NC(=O)C[N+](CC)(CC)CC)cc2)cc1.O=C[O-] [PrAQ, 4-propyl-4′-(2)-triethylammoniumacetamidoazobenzene formate]
Sh-IR; 40 nM
  block of Iss in the cis form: 50%
Sh-IR; 40 nM, 500 nm
  block by the trans isomer: without producing obvious block
Sh-IR
  isomer preference of block: preferentially blocks in the cis form

## CCC(=O)Nc1ccc(N=Nc2ccc(NC(=O)C[N+](CC)(CC)CC)cc2)cc1 [EtAcAQ]
[1]
  block of steady-state current: persistently blocked the entire steady-state current in a light-dependent fashion

## CC[N+](CC)(CC)CC(=O)Nc1ccc(/N=N/c2ccc(NC(=O)c3ccccc3)cc2)cc1 [BzAQ, 4-benzamido-4′-(2)-triethylammoniumacetamidoazobenzene formate]
Sh-IR; Iss relative to that under 380 nm illumination, extracellular treatment in dark
  minimal dose able to block >95% of Iss: 25 µM
[6]; 20 μM BzAQ extracellular, Iss at +30 mV compared at 380 and 500 nm
  Iss blocked: 57+/−6.6%
[6]; current clamp, cell near threshold, 500 nm light
  action potential firing: sufficient to induce action potential firing
[6]; current clamp, switched from cis to trans
  effect on cellular membrane potential: significantly depolarize the cellular membrane potential
Kν channels
  channels blocked / selectivity: selective for Kν channels
  external or internal blocker: external blocker
  isomeric form that blocks: trans-blocker

## CC[N+](CC)(CC)CC(=O)Nc1ccc(/N=N/c2ccc(NC(=O)C[N+](CC)(CC)CC)cc2)cc1 [QAQ]
[7]
  photosensitization of Ca channels: photosensitize L type and N type Ca channels
[7]; [14]
  light condition of block: the block occurred in the dark, or under 500 nm light
[8]
  photoregulation of K channels: photoregulate Shaker K channel and also other K channel subtypes such as Kν2, Kν3 Kν4 and native K channels in hippocampal cells
[8]; [14]
  light condition of block: the block occurred in the dark, or under 500 nm light
[9]
  number of licks: reduced
  time spent paw lifting: reduced
P2X7R [10]; ATP
  loading into hippocampal neurons: could be loaded into cells only when P2X7 receptors were expressed
P2X7R [10]; cells tested
  cells not heterologously expressing P2X7R that QAQ entered: 1 of 13
P2X7R [11]; P2X7R co-expressed with Shaker, ATP coapplied
  loading into HEK cells: could be loaded in the HEK cell only if P2X7 channels were expressed and ATP, the agonist for the P2X7 channels, was coapplied
P2X7R [11]; application of 5 min with ATP
  photoswitching of Shaker channels current: very good photoswitching
Kν channels
  channels blocked / selectivity: able to block Kν, Naν, and Caν channels
  external or internal blocker: internal blocker
  isomeric form that blocks: trans-blocker
[12]
  photosensitization of Na channels: photosensitizes native Na channels expressed in NG108-15 cells
[12]; [14]
  light condition of block: the block occurred in the dark, or under 500 nm light
neurons
  neuron firing under green light: does at best one action potential (AP), but remains silent
  neuron firing under purple light: fires normally
TRPV1; TRPV1 co-expressed with Shaker, capsaicin
  loading into cells: could be loaded into cells co-expressing TRPV1 and Shaker channel in the presence of the TRPV1 agonist capsaicin
TRPV1; loaded in the presence of capsaicin
  photoswitching: photoswitching could be effected
[13]
  photoswitching of native K channels: very robust photoswitching of native K channels
Shaker channel
  membrane permeance: membrane impermeant
Shaker channel; 100 μM QAQ, +40 mV, 380 nm versus green light
  photoregulation of K current, applied through the patch pipette: photoregulation of the K channel current was observed
Shaker channel; external application
  photoregulation of K current, externally applied: no photoregulation of K current was seen

## C=CCCC(=O)Nc1ccc(N=Nc2ccc(NC(=O)C[N+](CC)(CC)CC)cc2)cc1.O=C[O-] [compound 10, 4-(pent-4-en)amido-4′-(2)-triethylammoniumacetamidoazobenzene formate]
Sh-IR
  isomer preference of block: essentially equal block in both cis and trans forms
